Test results reported in US20120157452A1, “1H-PYRAZOLO[3,4-B] PYRIDINE COMPOUNDS FOR INHIBITING RAF KINASE” (GENENTECH, INC., priority 2009, published 2012).

Molecular target: T1, V600E full-length B-Raf (Homo sapiens, UniProt P15056, V600E)
T1 construct: made in house; host or cells: Sf9 insect cells (baculovirus)
Test: B-Raf IC50 assay: incorporation of radio labeled phosphate from [γ-33P]ATP into FSBA-modified wild-type MEK
Format: biochemical
Description: Determining the activity of Raf in the sample is possible by a number of direct and indirect detection methods (US 2004/0082014). Activity of human recombinant B-Raf protein may be assessed in vitro by assay of the incorporation of radio labeled phosphate to recombinant MAP kinase (MEK), a known physiologic substrate of B-Raf, according to US 2004/0127496 and WO 03/022840. The activity/inhibition of V600E full-length B-Raf was estimated by measuring the incorporation of radio labeled phosphate from [γ-^33]ATP into FSBA-modified wild-type MEK (see Biological Example 1).
Activity of human recombinant B-Raf protein may be assessed in vitro by assay of the incorporation of radio labeled phosphate to recombinant MAP kinase (MEK), a known physiologic substrate of B-Raf, according to US 2004/0127496 and WO 03/022840. Catalytically active human recombinant B-Raf protein is obtained by purification from sf9 insect cells infected with a human B-Raf recombinant baculovirus expression vector.
The activity/inhibition of V600E full-length B-Raf was estimated by measuring the incorporation of radio labeled phosphate from [γ-^33]ATP into FSBA-modified wild-type MEK. The 30-μL, assay mixtures contained 25 mM Na Pipes, pH 7.2, 100 mM KCl, 10 mM MgCl2, 5 mM β-glycerophosphate, 100 μM Na Vanadate, 4 μM ATP, 500 nCi [γ-^33P]ATP, 1 μM FSBA-MEK and 20 nM V600E full-length B-Raf. Incubations were carried out at 22° C. in a Costar 3365 plate (Corning). Prior to the assay, the B-Raf and FSBA-MEK were preincubated together in assay buffer at 1.5× (20 μL of 30 nM and 1.5 μM, respectively) for 15 minutes, and the assay was initiated by the addition of 10 μL of […]. Following the 60-minute incubation, the assay mixtures were quenched by the addition of 100 μL of 25% TCA, the plate was mixed on a rotary shaker for 1 minute, and the product was captured on a Perkin-Elmer GF/B filter plate using a Tomtec Mach III Harvester. After sealing the bottom of the plate, 35 μL of Bio-Safe II (Research Products International) scintillation cocktail were added to each well and the plate was top-sealed and counted in a Topcount NXT (Packard).

[1] = 4 μM ATP, 60-minute incubation, representative data of multiple tests

T1 sequence (P15056 whole entry V600E): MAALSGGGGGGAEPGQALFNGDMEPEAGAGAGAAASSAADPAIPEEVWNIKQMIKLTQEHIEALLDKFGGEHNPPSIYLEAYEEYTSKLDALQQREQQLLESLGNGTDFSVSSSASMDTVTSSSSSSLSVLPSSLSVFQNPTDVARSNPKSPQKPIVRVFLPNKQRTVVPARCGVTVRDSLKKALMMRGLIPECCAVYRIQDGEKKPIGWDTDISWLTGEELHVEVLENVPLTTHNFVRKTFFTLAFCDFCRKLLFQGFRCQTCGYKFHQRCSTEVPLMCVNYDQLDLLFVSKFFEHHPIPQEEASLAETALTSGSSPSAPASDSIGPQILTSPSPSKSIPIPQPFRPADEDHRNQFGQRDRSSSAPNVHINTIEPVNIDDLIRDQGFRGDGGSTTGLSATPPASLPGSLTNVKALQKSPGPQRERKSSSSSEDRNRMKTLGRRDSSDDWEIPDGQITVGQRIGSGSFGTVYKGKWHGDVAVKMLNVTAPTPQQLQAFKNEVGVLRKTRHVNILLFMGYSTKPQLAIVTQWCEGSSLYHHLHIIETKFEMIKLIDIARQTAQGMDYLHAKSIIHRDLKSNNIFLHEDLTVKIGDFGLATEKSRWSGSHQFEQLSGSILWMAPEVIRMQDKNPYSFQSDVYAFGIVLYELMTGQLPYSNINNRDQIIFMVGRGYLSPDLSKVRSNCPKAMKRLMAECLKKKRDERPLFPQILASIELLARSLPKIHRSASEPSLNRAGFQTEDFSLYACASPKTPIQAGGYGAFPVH

Row | IC50 [1] | IC50 (bound stated) | Structure (SMILES)
1 | 429 nM | < 500 nM | COc1n[nH]c2ncc(NC(=O)c3cccc(OCc4ccccc4)c3)cc12 [Example 1, 3-(benzyloxy)-N-(3-methoxy-1H-pyrazolo[3,4-b]pyridin-5-yl)benzamide]
2 | 55.8 nM | < 100 nM | COc1n[nH]c2ncc(NC(=O)c3cc(OCc4ccccc4)ccc3F)cc12 [Example 2, 5-(benzyloxy)-2-fluoro-N-(3-methoxy-1H-pyrazolo[3,4-b]pyridin-5-yl)benzamide]
3 | 0.44 nM | < 100 nM | COc1n[nH]c2ncc(NC(=O)c3c(Cl)ccc(OCc4ccccc4F)c3F)cc12 [Example 3, 6-chloro-2-fluoro-3-(2-fluorobenzyloxy)-N-(3-methoxy-1H-pyrazolo[3,4-b]pyridin-5-yl)benzamide]
4 | 0.62 nM | < 100 nM | COc1n[nH]c2ncc(NC(=O)c3c(Cl)ccc(OCc4ccccc4)c3F)cc12 [Example 4, 3-(benzyloxy)-6-chloro-2-fluoro-N-(3-methoxy-1H-pyrazolo[3,4-b]pyridin-5-yl)benzamide]
5 | 1.06 nM | < 100 nM | COc1n[nH]c2ncc(NC(=O)c3c(C)ccc(OCc4ccccc4)c3F)cc12 [Example 5, 3-(benzyloxy)-2-fluoro-N-(3-methoxy-1H-pyrazolo[3,4-b]pyridin-5-yl)-6-methylbenzamide]
6 | 2.52 nM | < 100 nM | CCc1n[nH]c2ncc(NC(=O)c3c(Cl)ccc(OCc4ccccc4)c3F)cc12 [Example 6, 3-(benzyloxy)-6-chloro-N-(3-ethyl-1H-pyrazolo[3,4-b]pyridin-5-yl)-2-fluorobenzamide]
7 | 4.76 nM | < 100 nM | CN(C)c1n[nH]c2ncc(NC(=O)c3c(Cl)ccc(OCc4ccccc4)c3F)cc12 [Example 7, 3-(benzyloxy)-6-chloro-N-(3-(dimethylamino)-1H-pyrazolo[3,4-b]pyridin-5-yl)-2-fluorobenzamide]
8 | 5.83 nM | < 100 nM | O=C(Nc1cnc2[nH]nc(C(F)(F)F)c2c1)c1c(Cl)ccc(OCc2ccccc2)c1F [Example 8, 3-(benzyloxy)-6-chloro-2-fluoro-N-(3-(trifluoromethyl)-1H-pyrazolo[3,4-b]pyridin-5-yl)benzamide]
9 | 1.17 nM | < 100 nM | O=C(Nc1cnc2[nH]nc(-c3ccco3)c2c1)c1c(Cl)ccc(OCc2ccccc2)c1F [Example 9, 3-(benzyloxy)-6-chloro-2-fluoro-N-(3-(furan-2-yl)-1H-pyrazolo[3,4-b]pyridin-5-yl)benzamide]
10 | 2.29 nM | < 100 nM | CC(C)c1n[nH]c2ncc(NC(=O)c3c(Cl)ccc(OCc4ccccc4)c3F)cc12 [Example 10, 3-(benzyloxy)-6-chloro-2-fluoro-N-(3-isopropyl-1H-pyrazolo[3,4-b]pyridin-5-yl)benzamide]
11 | 7.03 nM | < 100 nM | CNc1n[nH]c2ncc(NC(=O)c3c(Cl)ccc(OCc4ccccc4)c3F)cc12 [Example 11, 3-benzyloxy-6-chloro-2-fluoro-N-(3-(methylamino)-1H-pyrazolo[3,4-b]pyridin-5-yl)benzamide]
12 | 1.85 nM | < 100 nM | CSc1n[nH]c2ncc(NC(=O)c3c(Cl)ccc(OCc4ccccc4)c3F)cc12 [Example 12, 3-(benzyloxy)-6-chloro-2-fluoro-N-(3-(methylthio)-1H-pyrazolo[3,4-b]pyridin-5-yl)benzamide]
13 | 1.91 nM | < 100 nM | COCCOc1n[nH]c2ncc(NC(=O)c3c(Cl)ccc(OCc4ccccc4)c3F)cc12 [Example 13, 3-(benzyloxy)-6-chloro-2-fluoro-N-(3-(2-methoxyethoxy)-1H-pyrazolo[3,4-b]pyridin-5-yl)benzamide]
14 | 0.93 nM | < 100 nM | CCOc1n[nH]c2ncc(NC(=O)c3c(Cl)ccc(OCc4ccccc4)c3F)cc12 [Example 14, 3-(benzyloxy)-6-chloro-N-(3-ethoxy-1H-pyrazolo[3,4-b]pyridin-5-yl)-2-fluorobenzamide]
15 | 2.63 nM | < 100 nM | O=C(Nc1cnc2[nH]nc(OCCO)c2c1)c1c(Cl)ccc(OCc2ccccc2)c1F [Example 15, 3-(benzyloxy)-6-chloro-2-fluoro-N-(3-(2-hydroxyethoxy)-1H-pyrazolo[3,4-b]pyridine-5-yl)benzamide]
16 | 1.71 nM | < 100 nM | CC(C)Oc1n[nH]c2ncc(NC(=O)c3c(Cl)ccc(OCc4ccccc4)c3F)cc12 [Example 16, 3-(benzyloxy)-6-chloro-2-fluoro-N-(3-isopropoxy-1H-pyrazolo[3,4-b]pyridin-5-yl)benzamide]
17 | 11.1 nM | < 100 nM | CN(C)CCOc1n[nH]c2ncc(NC(=O)c3c(Cl)ccc(OCc4ccccc4)c3F)cc12 [Example 17, 3-(benzyloxy)-6-chloro-N-(3-(2-(dimethylamino)ethoxy)-1H-pyrazolo[3,4-b]pyridin-5-yl)-2-fluorobenzamide]
18 | 0.82 nM | < 100 nM | O=C(Nc1cnc2[nH]nc(OCCF)c2c1)c1c(Cl)ccc(OCc2ccccc2)c1F [Example 18, 3-(benzyloxy)-6-chloro-2-fluoro-N-(3-(2-fluoroethoxy)-1H-pyrazolo[3,4-b]pyridine-5-yl)benzamide]
19 | 2.04 nM | < 100 nM | COc1n[nH]c2ncc(NC(=O)c3c(Cl)ccc(OCc4ccc(C(F)(F)F)cc4)c3F)cc12 [Example 19, 6-chloro-2-fluoro-N-(3-methoxy-1H-pyrazolo[3,4-b]pyridin-5-yl)-3-(4-(trifluoromethyl)benzyloxy)benzamide]
20 | 3.48 nM | < 100 nM | CC1(c2n[nH]c3ncc(NC(=O)c4c(Cl)ccc(OCc5ccccc5)c4F)cc23)CC1 [Example 20, 3-(benzyloxy)-6-chloro-2-fluoro-N-(3-(1-methylcyclopropyl)-1H-pyrazolo[3,4-b]pyridin-5-yl)benzamide]
21 | 72.4 nM | < 100 nM | COc1n[nH]c2ncc(NC(=O)c3cccc(OCc4ccccc4)c3Cl)cc12 [Example 21, 3-(benzyloxy)-2-chloro-N-(3-methoxy-1H-pyrazolo[3,4-b]pyridin-5-yl)benzamide]
22 | 585 nM |  | COc1n[nH]c2ncc(NC(=O)c3cccc(OCc4ccccc4)c3C)cc12 [Example 22, 3-(benzyloxy)-N-(3-methoxy-1H-pyrazolo[3,4-b]yridine-5-yl)-2-methylbenzamide]
23 | 4 nM | < 100 nM | COc1n[nH]c2ncc(NC(=O)c3cc(OCc4ccccc4)ccc3Cl)cc12 [Example 23, 5-(benzyloxy)-2-chloro-N-(3-methoxy-1H-pyrazolo[3,4-b]pyridin-5-yl)benzamide]
24 | 64.9 nM | < 100 nM | COc1n[nH]c2ncc(NC(=O)c3cc(OCc4ccccn4)ccc3Cl)cc12 [Example 24, 2-chloro-N-(3-methoxy-1H-pyrazolo[3,4-b]pyridin-5-yl)-5-(pyridin-2-ylmethoxy)benzamide]
25 | 12.3 nM | < 100 nM | COc1n[nH]c2ncc(NC(=O)c3c(Cl)ccc(OCc4ccccc4)c3Cl)cc12 [Example 25, 3-(benzyloxy)-2,6-dichloro-N-(3-methoxy-1H-pyrazolo[3,4-b]pyridin-5-yl)benzamide]
26 | 2.41 nM | < 100 nM | COc1n[nH]c2ncc(NC(=O)c3c(F)ccc(OCc4ccccc4)c3F)cc12 [Example 26, 3-(benzyloxy)-2,6-difluoro-N-(3-methoxy-1H-pyrazolo[3,4-b]pyridin-5-yl)benzamide]
27 | 2.95 nM | < 100 nM | COc1n[nH]c2ncc(NC(=O)c3cc(OCc4ccccc4)ccc3C)cc12 [Example 27, 5-(benzyloxy)-N-(3-methoxy-1H-pyrazolo[3,4-b]pyridin-5-yl)-2-methylbenzamide]
28 | 0.84 nM | < 100 nM | COc1n[nH]c2ncc(NC(=O)c3c(Cl)ccc(OCc4cccc(F)c4)c3F)cc12 [Example 28, 6-chloro-2-fluoro-3-(3-fluorobenzyloxy)-N-(3-methoxy-1H-pyrazolo[3,4-b]pyridin-5-yl)benzamide]
29 | 0.65 nM | < 100 nM | COc1n[nH]c2ncc(NC(=O)c3c(Cl)ccc(OCc4ccc(F)cc4)c3F)cc12 [Example 29, 6-chloro-2-fluoro-3-(4-fluorobenzyloxy)-N-(3-methoxy-1H-pyrazolo[3,4-b]pyridin-5-yl)benzamide]
30 | 0.56 nM | < 100 nM | COc1n[nH]c2ncc(NC(=O)c3c(Cl)ccc(OCc4ccc(C)cc4)c3F)cc12 [Example 31, 6-chloro-2-fluoro-N-(3-methoxy-1H-pyrazolo[3,4-b]pyridin-5-yl)-3-(4-methyl-benzyloxy)benzamide]
